According to patent publication US20200361871A1 (Enterprise Therapeutics Ltd., priority 2018, published 2020):

Target: human TMEM16A (TMEM16Aabc variant) (Homo sapiens, UniProt Q5XXA6, DEL476-501, form not given)
Assay: Automated whole-cell patch clamp (Qpatch) TMEM16A potentiator assay in FRT cells stably expressing human TMEM16A
Type: cell-based
Conditions: for % Potentiation @ 3.33 μM Avg: 3.33 μM solution of test compound, percentage increase of baseline TMEM16A current; for EC50: calculated EC50, Qpatch TMEM16A current at +70 mV
Method in brief: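 FRT cells stably expressing human TMEM16Aabc were recorded by automated whole-cell patch clamp, with intracellular Ca2+ buffered for ~EC20 activation, holding −70 mV and step to +70 mV at 0.05 Hz. Compound was applied cumulatively, 5 min per concentration. Peak current increase as % of baseline was fitted to give EC50 and maximum efficacy.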

human TMEM16A (TMEM16Aabc variant), sequence (Q5XXA6 with tags, fused parts or gaps DEL476-501): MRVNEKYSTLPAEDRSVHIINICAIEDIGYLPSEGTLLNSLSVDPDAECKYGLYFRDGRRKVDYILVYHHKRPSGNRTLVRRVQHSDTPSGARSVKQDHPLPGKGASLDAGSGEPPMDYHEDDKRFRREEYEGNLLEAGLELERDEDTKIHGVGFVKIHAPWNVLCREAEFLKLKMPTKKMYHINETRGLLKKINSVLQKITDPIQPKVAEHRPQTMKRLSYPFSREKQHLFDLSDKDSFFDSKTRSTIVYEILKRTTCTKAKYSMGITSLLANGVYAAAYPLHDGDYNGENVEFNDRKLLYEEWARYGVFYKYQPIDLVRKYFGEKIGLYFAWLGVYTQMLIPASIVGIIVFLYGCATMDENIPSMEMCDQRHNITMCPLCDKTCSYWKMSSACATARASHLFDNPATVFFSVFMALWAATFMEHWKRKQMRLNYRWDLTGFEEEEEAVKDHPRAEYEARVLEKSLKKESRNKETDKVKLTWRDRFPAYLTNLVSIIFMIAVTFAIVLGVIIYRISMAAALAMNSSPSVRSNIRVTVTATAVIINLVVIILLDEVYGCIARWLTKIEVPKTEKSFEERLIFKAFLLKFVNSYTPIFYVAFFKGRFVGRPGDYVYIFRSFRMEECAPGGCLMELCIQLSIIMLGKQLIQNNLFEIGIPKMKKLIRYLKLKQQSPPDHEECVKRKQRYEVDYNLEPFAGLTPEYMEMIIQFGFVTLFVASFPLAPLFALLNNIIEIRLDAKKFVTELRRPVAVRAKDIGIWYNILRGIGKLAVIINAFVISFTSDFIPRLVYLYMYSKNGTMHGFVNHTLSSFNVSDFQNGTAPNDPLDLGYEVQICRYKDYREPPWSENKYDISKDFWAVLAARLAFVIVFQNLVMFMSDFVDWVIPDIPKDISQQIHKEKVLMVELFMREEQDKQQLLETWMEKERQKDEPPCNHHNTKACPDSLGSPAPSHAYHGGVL

CC(C)(C)NC(=O)c1cc(NC(=O)Cc2c(Cl)cccc2Cl)ccn1 [Example 5.17, N-tert-Butyl-4-[[2-(2,6-dichlorophenyl)acetyl]amino]pyridine-2-carboxamide]
% Potentiation @ 3.33 μM Avg: 94% | EC50: 650 nM

CC(C)(C)NC(=O)c1cc(NC(=O)Cc2ccc(Cl)c(F)c2)ccn1 [Example 5.18, N-tert-Butyl-4-[[2-(4-chloro-3-fluoro-phenyl)acetyl]amino]pyridine-2-carboxamide]
% Potentiation @ 3.33 μM Avg: 79% | EC50: 460 nM

CC(C)(C)NC(=O)c1cc(NC(=O)Cc2cc(Cl)cc(Cl)c2)ccn1 [Example 5.19, N-tert-Butyl-4-[[2-(3,5-dichlorophenyl)acetyl]amino]pyridine-2-carboxamide]
% Potentiation @ 3.33 μM Avg: 75% | EC50: 1850 nM

CC(C)(C)NC(=O)c1cc(NC(=O)Cc2ccccc2Cl)ccn1 [Example 5.20, N-tert-Butyl-4-[[2-(2-chlorophenyl)acetyl]amino]pyridine-2-carboxamide]
% Potentiation @ 3.33 μM Avg: 221% | EC50: 570 nM

CC(C)(C)NC(=O)c1cc(NC(=O)Cc2ccc(O)c(Cl)c2)ccn1 [Example 5.21, N-tert-Butyl-4-[[2-(3-chloro-4-hydroxy-phenyl)acetyl]amino]pyridine-2-carboxamide]
% Potentiation @ 3.33 μM Avg: 172% | EC50: 510 nM

CC(C)(C)NC(=O)c1cc(NC(=O)C2CCc3ccccc32)ccn1 (stereo not drawn) [Example 5.22, N-tert-Butyl-4-(indane-1-carbonylamino)pyridine-2-carboxamide]
% Potentiation @ 3.33 μM Avg: 94%

CC(C)(C)NC(=O)c1cc(NC(=O)Cc2ccc3nccnc3c2)ccn1 [Example 5.23, N-tert-Butyl-4-[(2-quinoxalin-6-ylacetyl)amino]pyridine-2-carboxamide]
% Potentiation @ 3.33 μM Avg: 144% | EC50: 1200 nM

CC(C)(C)NC(=O)c1cc(NC(=O)Cc2ccc3ccccc3c2)ccn1 [Example 5.24, N-tert-Butyl-4-[[2-(2-naphthyl)acetyl]amino]pyridine-2-carboxamide]
% Potentiation @ 3.33 μM Avg: 189% | EC50: 140 nM

CC(C)(C)NC(=O)c1cc(NC(=O)C2COc3ccccc32)ccn1 (stereo not drawn) [Example 5.25, N-tert-Butyl-4-(2,3-dihydrobenzofuran-3-carbonylamino)pyridine-2-carboxamide]
% Potentiation @ 3.33 μM Avg: 67%

CC(C)(C)NC(=O)c1cc(NC(=O)C2CCCCc3ccccc32)ccn1 (stereo not drawn) [Example 5.26, N-tert-Butyl-4-(6,7,8,9-tetrahydro-5H-benzo[7]annulene-5-carbonylamino) pyridine-2-carboxamide]
% Potentiation @ 3.33 μM Avg: 110% | EC50: 1200 nM

CC(C)(C)NC(=O)c1cc(NC(=O)C2CCCc3ccccc32)ccn1 (stereo not drawn) [Example 5.27, N-tert-Butyl-4-(tetralin-1-carbonylamino) pyridine-2-carboxamide]
% Potentiation @ 3.33 μM Avg: 84%

CC(C)(C)NC(=O)c1cc(NC(=O)Cc2ccc3ncccc3c2)ccn1 [Example 5.29, N-tert-Butyl-4-[[2-(6-quinolyl)acetyl]amino]pyridine-2-carboxamide]
% Potentiation @ 3.33 μM Avg: 190% | EC50: 860 nM

CC(C)(C)NC(=O)c1cc(NC(=O)Cc2ccc3c(c2)OCCO3)ccn1 [Example 5.31]
% Potentiation @ 3.33 μM Avg: 145%

C#CC(C)(C)NC(=O)c1cc(NC(=O)CC2OCCc3ccccc32)ccn1 (stereo not drawn) [Example 5.33, N-(1,1-Dimethylprop-2-ynyl)-4-[(2-isochroman-1-ylacetyl)amino]pyridine-2-carboxamide]
% Potentiation @ 3.33 μM Avg: 49%

C#CC(C)(C)NC(=O)c1cc(NC(=O)CC2CCC(F)(F)CC2)ccn1 [Example 5.34, 4-[[2-(4,4-Difluorocyclohexyl)acetyl]amino]-N-(1,1-dimethylprop-2-ynyl)pyridine-2-carboxamide]
% Potentiation @ 3.33 μM Avg: 185% | EC50: 640 nM

C#CC(C)(C)NC(=O)c1cc(NC(=O)Cc2ccc(C(F)(F)F)cc2)ccn1 [Example 5.35, N-(1,1-Dimethylprop-2-ynyl)-4-[[2-[4-(trifluoromethyl)phenyl]acetyl]amino]pyridine-2-carboxamide]
% Potentiation @ 3.33 μM Avg: 106% | EC50: 180 nM

C#CC(C)(C)NC(=O)c1cc(NC(=O)Cc2c[nH]nc2C(F)(F)F)ccn1 [Example 5.36, N-(1,1-Dimethylprop-2-ynyl)-4-[[2-[3-(trifluoromethyl)-1H-pyrazol-4-yl]acetyl]amino] pyridine-2-carboxamide]
% Potentiation @ 3.33 μM Avg: 44% | EC50: 60 nM

C#CC(C)(C)NC(=O)c1cc(NC(=O)Cc2cccc(C(F)(F)F)c2)ccn1 [Example 5.37, N-(1,1-Dimethylprop-2-ynyl)-4-[[2-[3-(trifluoromethyl)phenyl]acetyl]amino]pyridine-2-carboxamide]
% Potentiation @ 3.33 μM Avg: 117% | EC50: 150 nM

C#CC(C)(C)NC(=O)c1cc(NC(=O)Cc2ccccc2C(F)(F)F)ccn1 [Example 5.38, N-(1,1-Dimethylprop-2-ynyl)-4-[[2-[2-(trifluoromethyl)phenyl]acetyl]amino]pyridine-2-carboxamide]
% Potentiation @ 3.33 μM Avg: 231% | EC50: 150 nM

C#CC(C)(C)NC(=O)c1cc(NC(=O)CN2CCOc3ccccc32)ccn1 [Example 5.39, 4-[[2-(2,3-Dihydro-1,4-benzoxazin-4-yl)acetyl]amino]-N-(1,1-dimethylprop-2-ynyl)pyridine-2-carboxamide]
% Potentiation @ 3.33 μM Avg: 147%

CC(C)(C)NC(=O)c1cc(NC(=O)Cc2cc(C#N)ccc2O)ccn1 [Example 6, N-tert-Butyl-4-[[2-(5-cyano-2-hydroxy-phenyl)acetyl]amino]pyridine-2-carboxamide]
% Potentiation @ 3.33 μM Avg: 162% | EC50: 1140 nM

CC(C)(C)C(C)(C)NC(=O)c1cccc(NC(=O)Cc2cc(Cl)ccc2O)c1 [Example 7, 3-[[2-(5-Chloro-2-hydroxy-phenyl)acetyl]amino]-N-(1,1,2,2-tetramethylpropyl) benzamide]
% Potentiation @ 3.33 μM Avg: 153% | EC50: 650 nM

CCCC(C)(C)NC(=O)c1cccc(NC(=O)Cc2cc(Cl)ccc2O)c1 [Example 7.1, 3-[[2-(5-Chloro-2-hydroxy-phenyl)acetyl]amino]-N-(1,1-dimethylbutyl)benzamide]
% Potentiation @ 3.33 μM Avg: 241% | EC50: 340 nM

CCCC(C)(C)NC(=O)c1cc(NC(=O)Cc2cc(Cl)ccc2O)ccn1 [Example 7.2, 4-[[2-(5-Chloro-2-hydroxy-phenyl)acetyl]amino]-N-(1,1-dimethylbutyl)pyridine-2-carboxamide]
% Potentiation @ 3.33 μM Avg: 203% | EC50: 260 nM

O=C(Cc1cc(Cl)ccc1O)Nc1cccc(C(=O)NC2CCCCC2)c1 [Example 7.3, 3-[[2-(5-Chloro-2-hydroxy-phenyl)acetyl]amino]-N-cyclohexyl-benzamide]
% Potentiation @ 3.33 μM Avg: 125% | EC50: 200 nM

O=C(Cc1cc(Cl)ccc1O)Nc1cccc(C(=O)NC2CCOCC2)c1 [Example 7.4, 3-[[2-(5-Chloro-2-hydroxy-phenyl)acetyl]amino]-N-tetrahydropyran-4-yl-benzamide]
% Potentiation @ 3.33 μM Avg: 52% | EC50: 650 nM

CC(C)C(C)(C)NC(=O)c1cccc(NC(=O)Cc2cc(Cl)ccc2O)c1 [Example 7.5, 3-[[2-(5-Chloro-2-hydroxy-phenyl)acetyl]amino]-N-(1,1,2-trimethylpropyl)benzamide]
% Potentiation @ 3.33 μM Avg: 239% | EC50: 280 nM

CC(C)C(C)(C)NC(=O)c1cc(NC(=O)Cc2cc(Cl)ccc2O)ccn1 [Example 7.6, 4-[[2-(5-Chloro-2-hydroxy-phenyl)acetyl]amino]-N-(1,1,2-trimethylpropyl)pyridine-2-carboxamide]
% Potentiation @ 3.33 μM Avg: 285% | EC50: 100 nM

CC(C)NC(=O)c1cc(NC(=O)Cc2cc(Cl)ccc2O)ccn1 [Example 7.7, 4-[[2-(5-Chloro-2-hydroxy-phenyl)acetyl]amino]-N-isopropyl-pyridine-2-carboxamide]
% Potentiation @ 3.33 μM Avg: 234% | EC50: 130 nM

CC1(NC(=O)c2cccc(NC(=O)Cc3cc(Cl)ccc3O)c2)CCOCC1 [Example 7.8, 3-[[2-(5-Chloro-2-hydroxy-phenyl)acetyl]amino]-N-(4-methyltetrahydropyran-4-yl)benzamide]
% Potentiation @ 3.33 μM Avg: 231% | EC50: 920 nM

CC1(NC(=O)c2cc(NC(=O)Cc3cc(Cl)ccc3O)ccn2)CCOCC1 [Example 7.9, 4-[[2-(5-Chloro-2-hydroxy-phenyl)acetyl]amino]-N-(4-methyltetrahydropyran-4-yl)pyridine-2-carboxamide]
% Potentiation @ 3.33 μM Avg: 288% | EC50: 230 nM

CC1(NC(=O)c2cccc(NC(=O)Cc3cc(Cl)ccc3O)c2)CCC1 [Example 7.10, 3-[[2-(5-Chloro-2-hydroxy-phenyl)acetyl]amino]-N-(1-methylcyclobutyl)benzamide]
% Potentiation @ 3.33 μM Avg: 218% | EC50: 360 nM

O=C(Cc1cc(Cl)ccc1O)Nc1ccnc(C(=O)NC2CCOCC2)c1 [Example 7.11, 4-[[2-(5-Chloro-2-hydroxy-phenyl)acetyl]amino]-N-tetrahydropyran-4-yl-pyridine-2-carboxamide]
% Potentiation @ 3.33 μM Avg: 167% | EC50: 320 nM
